# Measurements: ChEMBL document CHEMBL2331358, “Novel agmatine dipeptide inhibitors against the West Nile virus NS2B/NS3 protease: a P3 and N-cap optimization study” (Eur J Med Chem, 2013)
# Assay: Inhibition of West Nile virus NS2B-NS3 serine protease using Pyr-RTKR-AMC as substrate incubated for 1 hr prior to substrate addition measured every 45 secs for 1 hr by fluorescence assay
row,SMILES,IC50
1,N=C(N)NCCCCNC(=O)[C@H](CCCCN)NC(=O)[C@H](Cc1ccccc1)NCC(=O)c1ccc(-c2ccccc2)cc1,44.5 µM
2,N=C(N)NCCCCNC(=O)[C@H](CCCCN)NC(=O)[C@H](CCCCN)NC(=O)c1ccc2ccccc2c1,32.5 µM
3,N=C(N)NCCCCNC(=O)[C@H](CCCCN)NC(=O)[C@H](CCC(N)=O)NCC(=O)c1ccc(-c2ccccc2)cc1,> 100 µM
4,N=C(N)NCCCCNC(=O)[C@H](CCCCN)NC(=O)[C@H](CC(N)=O)NCC(=O)c1ccc(-c2ccccc2)cc1,> 100 µM
5,C[C@H](NCC(=O)c1ccc(-c2ccccc2)cc1)C(=O)N[C@@H](CCCCN)C(=O)NCCCCNC(=N)N,53.7 µM
6,N=C(N)NCCCCNC(=O)[C@H](CCCCN)NC(=O)[C@@H]1CCCN1CC(=O)c1ccc(-c2ccccc2)cc1,> 100 µM
7,CC(C)C[C@H](NCC(=O)c1ccc(-c2ccccc2)cc1)C(=O)N[C@@H](CCCCN)C(=O)NCCCCNC(=N)N,> 100 µM
8,N=C(N)NCCCCNC(=O)[C@H](CCCCN)NC(=O)CNCC(=O)c1ccc(-c2ccccc2)cc1,> 100 µM
9,N=C(N)NCCCCNC(=O)[C@H](CCCCN)NC(=O)[C@H](CC(=O)O)NCC(=O)c1ccc(-c2ccccc2)cc1,> 100 µM
10,N=C(N)NCCCCNC(=O)[C@H](CCCCN)NC(=O)[C@H](CCC(=O)O)NCC(=O)c1ccc(-c2ccccc2)cc1,> 100 µM
11,CCCC[C@H](NCC(=O)c1ccc(-c2ccccc2)cc1)C(=O)N[C@@H](CCCCN)C(=O)NCCCCNC(=N)N,47.9 µM
12,CC(=O)N[C@@H](CCCCN)C(=O)NCCCCNC(=N)N,> 100 µM
13,N=C(N)NCCCCNC(=O)[C@H](CCCCN)NC(=O)[C@H](CCCCN)NC(=O)c1cccc2ccccc12,33.3 µM
14,N=C(N)NCCCCNC(=O)[C@H](CCCCN)NC(=O)[C@H](CCCCN)NC(=O)c1ccccc1,38.6 µM
15,N=C(N)NCCCCNC(=O)[C@H](CCCCN)NC(=O)[C@H](Cc1cnc[nH]1)NCC(=O)c1ccc(-c2ccccc2)cc1,> 100 µM
16,N=C(N)NCCCCNC(=O)[C@H](CCCCN)NC(=O)[C@@H](N)CCCCN,38.2 µM
17,N=C(N)NCCCCNC(=O)[C@H](CCCCN)NC(=O)[C@H](CO)NCC(=O)c1ccc(-c2ccccc2)cc1,> 100 µM
18,CC(C)(C)C(=O)N[C@@H](CCCCN)C(=O)N[C@@H](CCCCN)C(=O)NCCCCNC(=N)N,27.1 µM
19,N=C(N)NCCCCNC(=O)[C@H](CCCCN)NC(=O)[C@H](Cc1ccc(O)cc1)NCC(=O)c1ccc(-c2ccccc2)cc1,33.5 µM
20,CC(C)[C@H](NCC(=O)c1ccc(-c2ccccc2)cc1)C(=O)N[C@@H](CCCCN)C(=O)NCCCCNC(=N)N,> 100 µM
21,N=C(N)NCCCCNC(=O)[C@H](CCCCN)NC(=O)[C@H](CCCCN)NC(=O)CCc1ccccc1,42.2 µM
22,N=C(N)NCCCCNC(=O)[C@H](CCCCN)NC(=O)[C@@H](CCCCN)NCC(=O)c1ccc(-c2ccccc2)cc1,> 100 µM

# These reach a lower IC50. Values come first.
row,IC50,SMILES
1,2.6 µM,N=C(N)NCCCCNC(=O)[C@H](CCCCN)NC(=O)[C@H](CCCCN)NC(=O)Cc1ccccc1Cl
2,18.2 µM,CC(=O)N[C@@H](CCCCN)C(=O)N[C@@H](CCCCN)C(=O)NCCCCNC(=N)N
3,11.2 µM,N=C(N)NCCCCNC(=O)[C@H](CCCCN)NC(=O)[C@H](CCCCN)NC(=O)CCCc1ccccc1
4,23.8 µM,CC(C)C(=O)N[C@@H](CCCCN)C(=O)N[C@@H](CCCCN)C(=O)NCCCCNC(=N)N
5,19.1 µM,CCC(=O)N[C@@H](CCCCN)C(=O)N[C@@H](CCCCN)C(=O)NCCCCNC(=N)N
6,9.9 µM,N=C(N)NCCCCNC(=O)[C@H](CCCCN)NC(=O)[C@H](CCCCN)NC(=O)Cc1cccc(-c2ccccc2)c1
7,19.2 µM,CC(C)CC(=O)N[C@@H](CCCCN)C(=O)N[C@@H](CCCCN)C(=O)NCCCCNC(=N)N
8,9.2 µM,Cc1cccc(CC(=O)N[C@@H](CCCCN)C(=O)N[C@@H](CCCCN)C(=O)NCCCCNC(=N)N)c1
9,9.6 µM,N=C(N)NCCCCNC(=O)[C@H](CCCCN)NC(=O)[C@H](CCCCN)NC(=O)Cc1cccc(Cl)c1
10,19.1 µM,N=C(N)NCCCCNC(=O)[C@H](CCCCN)NC(=O)[C@H](CCCNC(=N)N)NCC(=O)c1ccc(-c2ccccc2)cc1
11,6.8 µM,Cc1ccccc1CC(=O)N[C@@H](CCCCN)C(=O)N[C@@H](CCCCN)C(=O)NCCCCNC(=N)N
12,18.5 µM,CCCC(=O)N[C@@H](CCCCN)C(=O)N[C@@H](CCCCN)C(=O)NCCCCNC(=N)N
13,4.7 µM,N=C(N)NCCCCNC(=O)[C@H](CCCCN)NC(=O)[C@H](CCCCN)NCC(=O)c1ccc(-c2ccccc2)cc1
14,8.5 µM,N=C(N)NCCCCNC(=O)[C@H](CCCCN)NC(=O)[C@H](CCCCN)NC(=O)Cc1ccccc1
15,4.8 µM,N=C(N)NCCCCNC(=O)[C@H](CCCCN)NC(=O)[C@H](CCCCN)NC(=O)Cc1ccc(Cl)cc1
16,6.9 µM,Cc1ccc(CC(=O)N[C@@H](CCCCN)C(=O)N[C@@H](CCCCN)C(=O)NCCCCNC(=N)N)cc1
